Literature values as cited in PMC10846240, “Pharmacokinetic/pharmacodynamic integration of amphenmulin: a novel pleuromutilin derivative against Mycoplasma gallisepticum” (Microbiology Spectrum, 2023).
Converted amounts (≈) assume the structure as drawn.

Assays:
[1] = tested on: M. gallisepticum; design: method as in PMID 27656647, PMID 25845865; conditions: intratracheal infection model; cited from earlier work
[2] = design: method as in PMID 26747098; conditions: after intravenous injection; cited from earlier work
[3] = tested on: Streptococcus pneumoniae; design: method as in PMID 30019769; conditions: neutropenic murine thigh and lung infection model; cited from earlier work
[4] = tested on: Staphylococcus aureus; design: method as in PMID 30019769; conditions: neutropenic murine thigh and lung infection model; cited from earlier work
[5] = tested on: M. gallisepticum S6 strain; design: method as in PMID 27656647; conditions: same strain (S6); cited from earlier work

SMILES	optimized therapeutic dosages [1] [mg/kg]	parameter most relevant to anti-mycoplasma effect [1]	free drug concentration in pulmonary epithelial lining fluid relative to plasma [2] [times]	character of activity [3]	character of activity [4]	MIC [5] [µg/mL]
C=C[C@]1(C)C[C@@H](OC(=O)CSC(C)(C)CNC(=O)[C@H](N)C(C)C)[C@]2(C)[C@H](C)CC[C@]3(CCC(=O)[C@H]32)[C@@H](C)[C@@H]1O [valnemulin]	6.5	AUC/MIC	–	–	–	–
C=C[C@]1(C)C[C@@H](OC(=O)CS[C@@H]2CC[C@@H](N)C[C@H]2O)[C@]2(C)[C@H](C)CC[C@]3(CCC(=O)[C@H]32)[C@@H](C)[C@@H]1O [lefamulin]	–	–	5.7	time- and concentration-dependent activity	time- and concentration-dependent activity	–
C=C[C@]1(C)C[C@@H](OC(=O)CSCCN(CC)CC)[C@]2(C)[C@H](C)CC[C@]3(CCC(=O)[C@H]32)[C@@H](C)[C@@H]1O [tiamulin]	45	AUC/MIC	–	–	–	0.03 (≈ 0.0608 µM)
